Measured values from patent US12662498B2 (priority 2017, dated 2026).

Test: ICH stability study of psilocybin batches (appearance, water content, purity, assay)
Settings: for Chemical Purity By HPLC / Total Impurities / Water content by loss on drying: listed as GM764B

SMILES: CN(C)CCc1c[nH]c2cccc(OP(=O)(O)O)c12 [Batch GM764B]
- Appearance (T = 0): An off white solid.
- Assay by 1H-NMR (T = 0): 97% ^w/w % w/w
- Impurities by HPLC: RRT 0.86 (T = 0): 0.05%
- Impurities by HPLC: RRT 1.46 (T = 0): 0.05%
- Impurities by HPLC: RRT 1.59 (Psilocin) (T = 0): 0.37%
- Chemical Purity By HPLC (T = 0): 99.24%
- Total Impurities (T = 0): 0.76%
- Water content by loss on drying (T = 0): 0.86% ^w/w % w/w
- Appearance (T = 1 month, 2-8° C.): An off white solid.
- Assay by 1H-NMR (T = 1 month, 2-8° C.): 99% ^w/w % w/w
- Impurities by HPLC: RRT 0.86 (T = 1 month, 2-8° C.): 0.05%
- Impurities by HPLC: RRT 1.46 (T = 1 month, 2-8° C.): 0.09%
- Impurities by HPLC: RRT 1.59 (Psilocin) (T = 1 month, 2-8° C.): 0.35%
- Chemical Purity By HPLC (T = 1 month, 2-8° C.): 99.24%
- Total Impurities (T = 1 month, 2-8° C.): 0.76%
- Water content by loss on drying (T = 1 month, 2-8° C.): 0.35% ^w/w % w/w
- Appearance (T = 1 month, 25° C./60% RH): An off white solid.
- Assay by 1H-NMR (T = 1 month, 25° C./60% RH): 98% ^w/w % w/w
- Impurities by HPLC: RRT 0.86 (T = 1 month, 25° C./60% RH): 0.05%
- Impurities by HPLC: RRT 1.46 (T = 1 month, 25° C./60% RH): 0.10%
- Impurities by HPLC: RRT 1.59 (Psilocin) (T = 1 month, 25° C./60% RH): 0.34%
- Chemical Purity By HPLC (T = 1 month, 25° C./60% RH): 99.22%
- Total Impurities (T = 1 month, 25° C./60% RH): 0.78%
- Water content by loss on drying (T = 1 month, 25° C./60% RH): 0.20% ^w/w % w/w
- Appearance (T = 1 month, 40° C./75% RH): An off white solid.
- Assay by 1H-NMR (T = 1 month, 40° C./75% RH): 96% ^w/w % w/w
- Impurities by HPLC: RRT 0.86 (T = 1 month, 40° C./75% RH): 0.05%
- Impurities by HPLC: RRT 1.46 (T = 1 month, 40° C./75% RH): 0.10%
- Impurities by HPLC: RRT 1.59 (Psilocin) (T = 1 month, 40° C./75% RH): 0.34%
- Chemical Purity By HPLC (T = 1 month, 40° C./75% RH): 99.23%
- Total Impurities (T = 1 month, 40° C./75% RH): 0.77%
- Water content by loss on drying (T = 1 month, 40° C./75% RH): 0.14% ^w/w % w/w
- Appearance (T = 3 months, 2-8° C.): An off white solid.
- Assay by 1H-NMR (T = 3 months, 2-8° C.): 97% ^w/w % w/w
- Impurities by HPLC: RRT 0.86 (T = 3 months, 2-8° C.): < 0.05%
- Impurities by HPLC: RRT 1.46 (T = 3 months, 2-8° C.): 0.10%
- Impurities by HPLC: RRT 1.59 (Psilocin) (T = 3 months, 2-8° C.): 0.37%
- Chemical Purity By HPLC (T = 3 months, 2-8° C.): 99.31%
- Total Impurities (T = 3 months, 2-8° C.): 0.69%
- Water content by loss on drying (T = 3 months, 2-8° C.): 0.26% ^w/w % w/w
- Appearance (T = 3 months, 25° C./60% RH): An off white solid.
- Assay by 1H-NMR (T = 3 months, 25° C./60% RH): 99% ^w/w % w/w
- Impurities by HPLC: RRT 0.86 (T = 3 months, 25° C./60% RH): < 0.05%
- Impurities by HPLC: RRT 1.46 (T = 3 months, 25° C./60% RH): 0.09%
- Impurities by HPLC: RRT 1.59 (Psilocin) (T = 3 months, 25° C./60% RH): 0.36%
- Chemical Purity By HPLC (T = 3 months, 25° C./60% RH): 99.27%
- Total Impurities (T = 3 months, 25° C./60% RH): 0.73%
- Water content by loss on drying (T = 3 months, 25° C./60% RH): 0.08% ^w/w % w/w
- Appearance (T = 3 months, 40° C./75% RH): An off white solid.
- Assay by 1H-NMR (T = 3 months, 40° C./75% RH): 97% ^w/w % w/w
- Impurities by HPLC: RRT 0.86 (T = 3 months, 40° C./75% RH): < 0.05%
- Impurities by HPLC: RRT 1.46 (T = 3 months, 40° C./75% RH): 0.10%
- Impurities by HPLC: RRT 1.59 (Psilocin) (T = 3 months, 40° C./75% RH): 0.37%
- Chemical Purity By HPLC (T = 3 months, 40° C./75% RH): 99.26%
- Total Impurities (T = 3 months, 40° C./75% RH): 0.74%
- Water content by loss on drying (T = 3 months, 40° C./75% RH): 0.14% ^w/w % w/w
